pKi: −log10 of the molar value.
Experiments:
Format in all cases: biochemical
Conditions in all cases: continuous assay 60 min, reaction initiated by adding enzyme to substrate-inhibitor mixture
[1] = target: MCH-5 (Homo sapiens, UniProt Q14790); assay: Dissociation constant Ki and irreversible rate constant k3 for irreversible inhibitors (Mch5)
[2] = target: T1, MCH-2 (Homo sapiens, UniProt P55212); assay: Dissociation constant Ki and irreversible rate constant k3 for irreversible inhibitors (Mch2)
T1 sequence (P55212 24-179 limits assumed): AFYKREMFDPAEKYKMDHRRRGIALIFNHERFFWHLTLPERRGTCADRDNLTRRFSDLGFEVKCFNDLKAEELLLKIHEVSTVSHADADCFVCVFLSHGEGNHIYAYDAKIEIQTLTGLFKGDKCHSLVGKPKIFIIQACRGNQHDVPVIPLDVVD
T1 sequence (P55212 194-293 limits assumed): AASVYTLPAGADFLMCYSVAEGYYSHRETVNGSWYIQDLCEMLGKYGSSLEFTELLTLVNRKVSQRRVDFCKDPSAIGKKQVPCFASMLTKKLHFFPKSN

[3] = target: T2, mICE (Mus musculus, UniProt P29452); assay: Dissociation constant Ki and irreversible rate constant k3 for irreversible inhibitors (ICE)
T2 sequence (P29452 123-296 limits assumed): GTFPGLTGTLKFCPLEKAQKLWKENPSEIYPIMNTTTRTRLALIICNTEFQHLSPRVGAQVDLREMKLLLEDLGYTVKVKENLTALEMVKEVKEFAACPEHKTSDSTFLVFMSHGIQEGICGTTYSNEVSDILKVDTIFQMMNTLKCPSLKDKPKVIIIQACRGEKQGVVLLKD
T2 sequence (P29452 315-402 limits assumed): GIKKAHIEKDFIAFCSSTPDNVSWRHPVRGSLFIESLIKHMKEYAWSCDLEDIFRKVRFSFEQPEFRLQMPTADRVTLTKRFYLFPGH

[4] = target: T3, CPP32 (Homo sapiens, UniProt P42574); assay: Dissociation constant Ki and irreversible rate constant k3 for irreversible inhibitors (CPP32)
T3 sequence (P42574 29-175 limits assumed): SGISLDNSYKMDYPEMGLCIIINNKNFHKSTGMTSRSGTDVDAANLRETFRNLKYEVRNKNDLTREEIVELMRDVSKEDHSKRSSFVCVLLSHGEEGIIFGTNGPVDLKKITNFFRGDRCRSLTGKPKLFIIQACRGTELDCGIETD
T3 sequence (P42574 176-277 limits assumed): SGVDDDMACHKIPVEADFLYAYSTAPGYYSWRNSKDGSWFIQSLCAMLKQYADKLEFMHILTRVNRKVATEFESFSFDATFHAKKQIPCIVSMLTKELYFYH

Sequence of MCH-5 (Q14790 217-374 limits assumed, species assumed): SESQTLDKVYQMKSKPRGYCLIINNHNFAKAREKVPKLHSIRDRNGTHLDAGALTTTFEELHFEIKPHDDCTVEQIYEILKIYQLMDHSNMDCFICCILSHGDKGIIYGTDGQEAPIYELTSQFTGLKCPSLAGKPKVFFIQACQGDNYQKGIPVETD
Sequence of MCH-5 (Q14790 385-479 limits assumed, species assumed): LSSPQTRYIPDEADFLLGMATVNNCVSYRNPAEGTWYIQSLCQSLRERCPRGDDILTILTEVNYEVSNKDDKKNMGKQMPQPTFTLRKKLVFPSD

| Structure (SMILES) | pKi [1] | MCH-5 k3/Ki [1] | pKi [2] | MCH-2 k3/Ki [2] | pKi [3] | mICE k3/Ki [3] | CPP32 k3/Ki [4] | pKi [4] |
| --- | --- | --- | --- | --- | --- | --- | --- | --- |
| CC(C)[C@H](NC(=O)C(=O)NCc1ccccc1)C(=O)N[C@@H](CC(=O)O)C(=O)COc1c(F)c(F)cc(F)c1F [Example 79] | 8.30 | 472,000 moles^−1 seconds^−1 | 6.90 | 16,600 moles^−1 seconds^−1 | 8.22 | 1,800,000 moles^−1 seconds^−1 | 21,000 moles^−1 seconds^−1 | 6.39 |
| CC(C)[C@H](NC(=O)C(=O)NCCc1ccccc1)C(=O)N[C@@H](CC(=O)O)C(=O)COc1c(F)c(F)cc(F)c1F [Example 80] | 6.79 | 16,600 moles^−1 seconds^−1 | 6.76 | 12,600 moles^−1 seconds^−1 | 6.74 | 77,100 moles^−1 seconds^−1 | 13,400 moles^−1 seconds^−1 | 6.29 |
| CC(C)[C@H](NC(=O)C(=O)NC(c1ccccc1)c1ccccc1)C(=O)N[C@@H](CC(=O)O)C(=O)COc1c(F)c(F)cc(F)c1F [Example 81] | 7.44 | 48,600 moles^−1 seconds^−1 | 5.94 | 1,430 moles^−1 seconds^−1 | 7.27 | 201,000 moles^−1 seconds^−1 | 5,380 moles^−1 seconds^−1 | 6.05 |
| CC(C)[C@H](NC(=O)C(=O)Nc1ccccc1)C(=O)N[C@@H](CC(=O)O)C(=O)COc1c(F)c(F)cc(F)c1F [Example 82] | 8.30 | 598,000 moles^−1 seconds^−1 | 7.00 | 25,500 moles^−1 seconds^−1 | 8.15 | 1,490,000 moles^−1 seconds^−1 | 36,000 moles^−1 seconds^−1 | 6.41 |
| CC(C)[C@H](NC(=O)C(=O)Nc1ccccc1-c1ccccc1)C(=O)N[C@@H](CC(=O)O)C(=O)COc1c(F)c(F)cc(F)c1F [Example 83] | 7.52 | 65,300 moles^−1 seconds^−1 | 7.07 | 31,700 moles^−1 seconds^−1 | 6.87 | 127,000 moles^−1 seconds^−1 | 25,400 moles^−1 seconds^−1 | 6.60 |
| CC(C)[C@H](NC(=O)C(=O)Nc1ccccc1Cc1ccccc1)C(=O)N[C@@H](CC(=O)O)C(=O)COc1c(F)c(F)cc(F)c1F [Example 84] | 7.62 | 105,000 moles^−1 seconds^−1 | 7.09 | 25,300 moles^−1 seconds^−1 | 7.37 | 344,000 moles^−1 seconds^−1 | 54,800 moles^−1 seconds^−1 | 6.44 |
| CC(C)[C@H](NC(=O)C(=O)Nc1nc2ccccc2[nH]1)C(=O)N[C@@H](CC(=O)O)C(=O)COc1c(F)c(F)cc(F)c1F [Example 88] | 6.89 | 20,800 moles^−1 seconds^−1 | 5.84 | 1,840 moles^−1 seconds^−1 | 6.44 | 27,400 moles^−1 seconds^−1 | 3,130 moles^−1 seconds^−1 | 5.50 |
| CC(C)[C@H](NC(=O)C(=O)NC12CC3CC(CC(C3)C1)C2)C(=O)N[C@@H](CC(=O)O)C(=O)COc1c(F)c(F)cc(F)c1F [Example 89] | 7.40 | 59,900 moles^−1 seconds^−1 | 6.82 | 10,700 moles^−1 seconds^−1 | 7.28 | 184,000 moles^−1 seconds^−1 | 6,330 moles^−1 seconds^−1 | 5.82 |
| CC(C)[C@H](NC(=O)C(=O)Nc1ccccc1F)C(=O)N[C@@H](CC(=O)O)C(=O)COc1c(F)c(F)cc(F)c1F [Example 90] | 7.40 | 49,600 moles^−1 seconds^−1 | 6.66 | 11,200 moles^−1 seconds^−1 | 6.83 | 58,500 moles^−1 seconds^−1 | 5,560 moles^−1 seconds^−1 | 5.64 |
| CC(C)[C@H](NC(=O)C(=O)Nc1ccc(F)cc1)C(=O)N[C@@H](CC(=O)O)C(=O)COc1c(F)c(F)cc(F)c1F [Example 91] | 7.82 | 338,000 moles^−1 seconds^−1 | 7.23 | 121,000 moles^−1 seconds^−1 | 7.80 | 906,000 moles^−1 seconds^−1 | 36,300 moles^−1 seconds^−1 | 6.12 |
| CC(C)[C@H](NC(=O)C(=O)Nc1ccccc1C(F)(F)F)C(=O)N[C@@H](CC(=O)O)C(=O)COc1c(F)c(F)cc(F)c1F [Example 92] | 8.22 | 41,000 moles^−1 seconds^−1 | 7.92 | 261,000 moles^−1 seconds^−1 | 7.96 | 1,044,000 moles^−1 seconds^−1 | 57,400 moles^−1 seconds^−1 | 6.76 |
| CC(C)[C@H](NC(=O)C(=O)Nc1ccccc1C(C)(C)C)C(=O)N[C@@H](CC(=O)O)C(=O)COc1c(F)c(F)cc(F)c1F [Example 93] | 8.52 | 1,165,000 moles^−1 seconds^−1 | 7.39 | 112,000 moles^−1 seconds^−1 | 8.22 | 2,052,000 moles^−1 seconds^−1 | 27,700 moles^−1 seconds^−1 | 6.45 |
| CCCCCCCc1ccc(NC(=O)C(=O)N[C@H](C(=O)N[C@@H](CC(=O)O)C(=O)COc2c(F)c(F)cc(F)c2F)C(C)C)cc1 [Example 94] | 7.92 | 155,000 moles^−1 seconds^−1 | 7.23 | 50,000 moles^−1 seconds^−1 | 7.62 | 657,000 moles^−1 seconds^−1 | 11,200 moles^−1 seconds^−1 | 5.95 |
| COc1ccccc1NC(=O)C(=O)N[C@H](C(=O)N[C@@H](CC(=O)O)C(=O)COc1c(F)c(F)cc(F)c1F)C(C)C [Example 95] | 8.52 | 2,680,000 moles^−1 seconds^−1 | 7.06 | 61,500 moles^−1 seconds^−1 | 8.22 | 2,068,000 moles^−1 seconds^−1 | 10,800 moles^−1 seconds^−1 | 5.96 |
| CC(C)[C@H](NC(=O)C(=O)Nc1ccccn1)C(=O)N[C@@H](CC(=O)O)C(=O)COc1c(F)c(F)cc(F)c1F [Example 100] | 6.80 | 19,500 moles^−1 seconds^−1 | 6.73 | 11,600 moles^−1 seconds^−1 | 6.69 | 36,000 moles^−1 seconds^−1 | 9,850 moles^−1 seconds^−1 | 5.65 |
| CC(C)[C@H](NC(=O)C(=O)Nc1ccncc1)C(=O)N[C@@H](CC(=O)O)C(=O)COc1c(F)c(F)cc(F)c1F [Example 101] | 5.81 | 1,140 moles^−1 seconds^−1 | 6.19 | 5,580 moles^−1 seconds^−1 | 4.65 | 912 mol⁻¹ s⁻¹ | 511 mol⁻¹ s⁻¹ | 4.58 |

From US7183260B2, “C-terminal modified oxamyl dipeptides as inhibitors of the ICE/ced-3 family of cysteine proteases” (Idun Pharmaceuticals, Inc., priority 1998, dated 2007)
